According to patent US12240853B2, “Compounds useful in HIV therapy” (GlaxoSmithKline Intellectual Property (No.2) Limited, priority 2019, dated 2025):

System: HIV pseudotyped virus (NL4-3 provirus, luciferase reporter), WT
Assay: PSV (pseudotyped virus) assay, WT
Details: Human immunodeficiency virus 1, NL43, 72 h, read-out: WT IC50
Protocol: A pseudotyped virus assay (PSV) was used to assess the potency of the HIV inhibitor.
The PSV assay was performed by using U373 cells stably transformed to express human CD4, the primary receptor for HIV entry and either human CXCR4 or human CCR5 which are the co-receptors required for HIV entry as target cells for infection. […] This dose-range was applied to U373 cells and the pre-made pseudotyped virus added. The amount of luciferase signal produced after 3 days of culture was used to reflect the level of pseudotyped virus infection. An IC50, or the concentration of inhibitor required to reduce PSV infection by 50% from the infection containing no inhibitor was calculated. […] IC50 values were determined from a 10 point dose response curve using 3-4-fold serial dilution for each compound, which spans a concentration range>1000 fold.
These values are plotted against the molar compound concentrations using the standard four parameter logistic equation: y=((Vmax*x^n)/(K^n+x^n))+Y2

In the case of `C#C[C@]1(COC(=O)CCCCCCCCC)O[C@@H](n2cnc3c(N)nc(F)nc32)C[C@@H]1OC(=O)CCCCCCCCC` [Example 18, (2R,3S,5R)-5-(6-amino-2-fluoro-9H-purin-9-yl)-2-((decanoyloxy)methyl)-2-ethynyltetrahydrofuran-3-yl Decanoate], the IC50 is reported as 10 nM.
